{"source": "paper PMC10477886", "about": "“Adamantaniline Derivatives Target ATP5B to Inhibit Translation of Hypoxia Inducible Factor‐1α” (Advanced Science, 2023)", "key": {"[1]": {"tested_on": "HIF‐1α transcriptional activity", "assay": "dual‐luciferase assay (HRE‐Firefly Luciferase / renilla) of HIF‐1α transcriptional activity in HEK293T cells", "type": "cell-based, human", "in_short": "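Stable HEK293T line carrying HRE-firefly luciferase, renilla and HIF-1α P402A/P564A mutant, giving HIF-1α expression under normoxia. Compounds incubated 24 h at 37 °C; firefly/renilla luciferase ratio read as HIF-1α transcriptional activity.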"}, "ATP synthase": {"target": "T1, ATP synthase (Bos taurus, UniProt P00829)", "T1 construct": "purchased Abcam ab109907", "assay": "MitoTox Complex V OXPHOS activity assay", "type": "biochemical", "conditions": "up to 50 µM", "method": "The activity of complex V was determined using the MitoTox Complex V OXPHOS Activity Assay kit from Abcam (ab109907, Cambridge, MA, USA), according to the instructions. The activity of complex V was measured by monitoring the change in absorbance at 340 nm over a period of 2 h at 30 °C. Oligomycin (Selleck, […]) was used as a positive control for the assay."}, "HIF‐1α translation": {"tested_on": "HIF‐1α translation", "assay": "polysome profile analysis", "type": "cell-based, human", "conditions": "HEK293T, 12 h with MG‐132, hypoxia", "method": "Given that HI‐101 affected neither the transcription of HIF‐1α nor its degradation, we next tested whether HI‐101 regulated HIF‐1α translation. Polysome profile analysis is a commonly used method for studying translation process by separating polysomes and ribosomal subunits using a sucrose density gradient (SDG).^[ [53] ^] After treating with HI‐101 or DMSO for 12 h co‐incubated with MG‐132 under hypoxia condition, HEK293T cells were collected and polysome‐bound and polysome‐free mRNAs were isolated by using 10–50% sucrose gradient fractionation.\nPolysome RNA preparations and analysis were carried out as previously described.^[ [60] ^] Briefly, cells were seeded in 10 cm dishes, and washed with cold PBS containing 100 µg mL^−1 cycloheximide, and then lysed in a hypotonic lysis buffer [5 mM tris‐HCl (pH 7.5), 2.5 mM MgCl2, 1.5 mM KCl, 100 µg mL^−1 cycloheximide, 2 mM DTT, 0.5% Triton X‐100, and 0.5% sodium deoxycholate]. A lysate sample was used to isolate the cytoplasmic RNA using TRIzol (Invitrogen). […] Gradients were fractionated, and the optical density at 260 nm was continuously detected by a UV detector and fraction collector (Teledyne ISCO). […] Fractions with mRNA associated with polysomes were pooled and HIF‐1α mRNA abundance was detected by RT‐PCR amplification in each fraction of the polysome gradient. […]"}, "HIF‐1α protein level": {"tested_on": "HIF‐1α protein level", "assay": "western blot of HIF‐1α protein level in cells", "type": "cell-based, human", "method": "Cells were lysed with RIPA lysis (Epizyme, PC101) containing 1% cocktail protease inhibitors (MCE), and protein concentrations were determined by BCA kits (Beyotime, P0012S). Samples were denatured using DS‐PAGE Protein Staining and Loading Buffer (5×) (Beyotime, P0015L) followed by boiling for 10 min at 98 °C then the proteins were fractionated by 10% or 12.5% SDS‐PAGE and transferred to Cellulose Nitrate Membrane Filters (WHATMAN). After blocking in 5% non‐fat milk for 2 h at room temperature, the membrane was incubated overnight with specific antibodies at 4 °C, followed by horseradish peroxidase (HRP)‐linked anti‐mouse or anti‐rabbit secondary antibody (Cell Signaling Technology). Finally, An Immobilon Western Chemiluminescent HRP Substrate Kit (Merck Millipore) was used for protein bands detection. In addition, blots were probed with anti‐β‐actin (Merck, Darmstadt, Germany) antibody as the internal control."}}, "data": [{"smiles": "O=C(Nc1ccc(C23CC4CC(CC(C4)C2)C3)cc1)c1cccc(Cl)c1", "note": "[1‐3a, N‐(4‐((3r,5r,7r)‐Adamantan‐1‐yl)Phenyl)−3‐Chlorobenzamide]", "values": [{"measurement": "inhibition at 10 µM", "setting": "[1]; Homo sapiens, HEK-293T, 10 µM, incubation 24 h, HEK293T, mean ± s.d. (n = 3), read-out: Inhibition rate [%] @ 10 µM", "value": "81.4 ± 0.9", "unit": "%"}, {"measurement": "IC50", "setting": "[1]; Homo sapiens, HEK-293T, HEK293T dual‐luciferase, mean ± s.d. (n = 3)", "value": "2000 ± 300", "unit": "nM"}, {"measurement": "HIF‐1α transcriptional activity (luciferase), in words", "setting": "[1]; hit confirmation", "value": "significantly inhibited HIF‐1α transcriptional activity"}, {"measurement": "ATP synthase activity", "setting": "ATP synthase", "value": "no effect on ATP synthase activity"}, {"measurement": "HIF‐1α translation", "setting": "HIF‐1α translation", "value": "efficiently inhibited HIF‐1α translation"}, {"measurement": "rate of HIF‐1α protein degradation", "setting": "HIF‐1α protein level; 10 µM with 100 µg mL^−1 CHX, hypoxia", "value": "did not have a significant effect on the rate of HIF‐1α protein degradation"}, {"measurement": "HIF‐1α protein expression", "setting": "HIF‐1α protein level; ATP5A or ATP5B knocked down by shRNA, up to 30 µM", "value": "failed to decrease HIF‐1α protein expression"}, {"measurement": "HIF‐1α protein level", "setting": "HIF‐1α protein level; hit confirmation, Figure S5", "value": "significantly reduced HIF‐1α protein level"}, {"measurement": "HIF‐1α protein level", "setting": "HIF‐1α protein level; hypoxia", "value": "specifically reduced the protein level of HIF‐1α in a dose‐dependent manner"}]}]}
